Results: patent US7569572B2, “Pyrazolo[4,3-D]pyrimidines” (Pfizer Inc, priority 2004, dated 2009)
Counter-ions that a name gives are not always drawn.

Target: T1, human platelet PDE5 (Homo sapiens, UniProt O76074)
T1 construct: utilizes PDE5 isolated from human platelets; from tissue; host or cells: human platelets
Assay: Method B: PDE-5 Inhibition Scintillation Proximity Assay (SPA) - Human Platelet (modified protocol of Method A)
Assay type: biochemical
Conditions: cGMP substrate 50 nM, PDE5 isolated from human platelets
Experimental: Method B: PDE-5 Inhibition Scintillation Proximity Assay (SPA)—Human Platelet
This method is a modified protocol of Method A.
The assay measures the inhibition of human platelet PDE5 enzyme activity by a test compound in an in vitro assay that utilizes PDE5 isolated from human platelets. PDE5 catalyzes the hydrolysis of [^3H]cGMP to the 5′ nucleotide [^3H]GMP. [^3H]GMP binds to yttrium silicate SPA beads and is detected by scintillation counting. The inhibition of enzyme activity is calculated relative to total PDE5 activity of uninhibited controls.
PDE5 IC50 Assay: 96-Well Microtiter Plate Format
Buffer A: 20 mM Tris-HCl, 5 mM MgCl2, pH 7.4
Buffer B: 2 mg/ml BSA in Buffer A (enzyme buffer)
cGMP substrate: Final concentration of 50 nM in assay
The amount of ^3H-labeled substrate added depends upon the specific activity of [^3H]cGMP, and it is diluted in Buffer A.
PDE enzyme: Prepared in Buffer B. The dilution factor is determined by enzyme activity.
SPA beads: 4 mg/ml suspension prepared in dH2O.
Stocks of standard and test compounds are prepared at 2 mM in 100% DMSO. Compounds are serially diluted in separate dilution plates using an 8-point ⅕ log dilution format such that the starting concentration in the assay is 2 μM for an initial IC50 screen. 27 μl of Buffer A are added to the wells of the assay plates. From the dilution plates, 3 μl of diluted compounds are delivered in duplicate or 3 μl of 100% DMSO (for positive and negative controls) are added. 30 μl of enzyme are added. For the negative control wells, Buffer B is substituted in place of the enzyme. 30 μl of labeled substrate are added to all wells.
After incubating for 60 minutes at room temperature, the reaction is stopped with the addition of 30 μl of the yttrium silicate beads. These beads are dense and require constant agitation while being added to the plate. The plates are sealed and shaken on a plate shaker for fifteen minutes to allow the beads to bind the GMP product.
After allowing the beads to settle for 30 minutes, plates are read on a NXT TopCount and data is analyzed in the Bioassay Solver application. Percent inhibition values are calculated using the means of the 0% and 100% controls on each plate. The estimates of the 4-parameters of the logistic, sigmoid dose-response model are then calculated using the well-level percent inhibition values for each compound. These estimates are used to calculate the concentration that corresponds to 50% inhibition.

FC(F)(F)COCCn1nc(CN2CCNCC2)c2nc(N3CCNCC3)nc(Nc3ccncn3)c21 [Example 41, 5-Piperazin-1-yl-3-(piperazin-1-ylmethyl)-N-pyrimidin-4-yl-1-[2-(2,2,2-trifluoroethoxy)ethyl]-1H-pyrazolo[4,3-d]pyrimidin-7-amine trifluoroacetate]
IC50: 1.8 nM

C[C@@H]1CN(c2nc(Nc3ccncn3)c3c(n2)c(CN2CCOCC2)nn3CCOCC(F)(F)F)CCN1 [Example 42, 5-[(3R)-3-Methylpiperazin-1-yl]-3-(morpholin-4-ylmethyl)-N-pyrimidin-4-yl-1-[2-(2,2,2-trifluoroethoxy)ethyl]-1H-pyrazolo[4,3-d]pyrimidin-7-amine trifluoroacetate]
IC50: 0.32 nM

FC(F)(F)COCCn1nc(CN2CCOCC2)c2nc(N3CCNCC3)nc(Nc3ccncn3)c21 [Example 43, 3-(Morpholin-4-ylmethyl)-5-piperazin-1-yl-N-pyrimidin-4-yl-1-[2-(2,2,2-trifluoroethoxy)ethyl]-1H-Pyrazolo[4,3-d]pyrimidin-7-amine trifluoroacetate]
IC50: 0.21 nM

CCN(C)c1nc(Nc2ccncn2)c2c(n1)c(CN1CCSCC1)nn2CCOCC(F)(F)F [Example 44, N^5-Ethyl-N^5-methyl-N^7-pyrimidin-4-yl-3-(thiomorpholin-4-ylmethyl)-1-[2-(2,2,2-trifluoroethoxy)ethy]-1H-pyrazolo[4,3-d]pyrimidine-5,7-diamine trifluoroacetate]
IC50: 0.79 nM

C[C@@H]1CN(c2nc(Nc3ccncn3)c3c(n2)c(CN2CCCCC2)nn3CCOCC(F)(F)F)CCN1 [Example 45, 5-[(3R)-3-Methylpiperazin-1-yl]-3-(piperidin-1-ylmethyl)-N-pyrimidin-4-yl-1-[2-(2,2,2-trifluoroethoxy)ethyl]-1H-pyrazolo[4,3-d]pyrimidin-7-amine trifluoroacetate]
IC50: 1.25 nM

C[C@@H]1CN(c2nc(Nc3ccncn3)c3c(n2)c(CN2CCSCC2)nn3CCOCC(F)(F)F)CCN1 [Example 46, 5-[(3R)-3-methylpiperazin-1-yl]-N-pyrimidin-4-yl-3-(thiomorpholin-4-ylmethyl)-1-[2-(2,2,2-trifluoroethoxy)ethyl]-1H-pyrazolo[4,3-d]pyrimidin-7-amine trifluoroacetate]
IC50: 0.14 nM

C[C@@H]1CN(c2nc(Nc3ccncn3)c3c(n2)c(CN2CCN(C)CC2)nn3CCOCC(F)(F)F)CCN1 [Example 47, 5-[(3R)-3-Methylpiperazin-1-yl]-3-[(4-methylpiperazin-1-yl)methyl]-N-pyrimidin-4-yl-1-[2-(2,2,2-trifluoroethoxy)ethyl]-1H-pyrazolo[4,3-d]pyrimidin-7-amine trifluoroacetate]
IC50: 0.47 nM

CCN(CC)Cc1nn(CCOCC(F)(F)F)c2c(Nc3ccncn3)nc(N(CC)CC)nc12 [Example 48, 3-[(Diethylamino)methyl]-N^5,N^5-diethyl-N^7-pyrimidin-4-yl-1-[2-(2,2,2-trifluoroethoxy)ethyl]-1H-pyrazolo[4,3-d]pyrimidine-5,7-diamine trifluoroacetate]
IC50: 7.39 nM

C[C@@H]1CN(c2nc(Nc3ccncn3)c3c(n2)c(CN2CCS(=O)(=O)CC2)nn3CCOCC(F)(F)F)CCN1 [Example 49, 3-[(1,1-Dioxidothiomorpholin-4-yl)methyl]-5-[(3R)-3-methylpiperazin-1-yl]-N-pyrimidin-4-yl-1-[2-(2,2,2-trifluoroethoxy)ethyl]-1H-pyrazolo[4,3-d]pyrimidin-7-amine trifluoroacetate]
IC50: 0.58 nM

FC(F)(F)CNCc1nn(CCOCC(F)(F)F)c2c(Nc3ccncn3)nc(N3CCNCC3)nc12 [Example 50, 1-(2-(2,2,2-trifluoroethoxy)ethyl)-3-((2,2,2-trifluoroethylamino)methyl)-5-(piperazin-1-yl)-N-(pyrimidin-4-yl)-1H-pyrazolo[4,3-d]pyrimidin-7-amine trifluoroacetate]
IC50: 1.06 nM
